The supplement of paper PMC11562712

Assay: first-order primary biodegradation rate constant k (sorption-corrected, fDis-corrected) (d-1); higher = faster biodegradation
Summary of the method: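 River water and sieved sediment (50 g wet solid L^–1) from segments in Germany, Switzerland, Spain and Greece were spiked with 129 compounds at 1 μg L^–1 each and shaken in the dark at river water temperature (20.5 ± 3.5 °C) for 10 days, in three replicates. After filtration, water-phase subsamples were analysed by Orbitrap tandem mass spectrometry following ultra-high-performance liquid chromatography. First-order k was taken from log peak-area regression, corrected using azide-sterilised sorption controls and divided by the dissolved fraction, excluding invalid fits.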

[1] = river segment: Germany (DE) H_Contam, incubation temperature 24 °C
[2] = river segment: Germany (DE) T_Contam, incubation temperature 24 °C
[3] = river segment: Greece (EL) A_Contam, incubation temperature 19 °C
[4] = river segment: Greece (EL) G_Pris, incubation temperature 19 °C
[5] = river segment: Spain (ES) B_Contam, incubation temperature 24 °C
[6] = river segment: Spain (ES) C_Contam, incubation temperature 24 °C
[7] = river segment: Spain (ES) F_Pris_Salt, incubation temperature 24 °C
[8] = river segment: Spain (ES) L_Contam, incubation temperature 24 °C
[9] = river segment: Switzerland (CH) R_Contam, incubation temperature 17 °C
[10] = river segment: Switzerland (CH) U_Contam, incubation temperature 17 °C
[11] = river segment: Switzerland (CH) U_Pris, incubation temperature 17 °C
[12] = river segment: Germany (DE) T_Pris, incubation temperature 24 °C
[13] = river segment: Greece (EL) L_Contam, incubation temperature 19 °C
[14] = river segment: Switzerland (CH) C_Contam, incubation temperature 17 °C
[15] = river segment: Greece (EL) G_Contam, incubation temperature 19 °C

Compound | first-order primary biodegradation rate constant k [1] | first-order primary biodegradation rate constant k [2] | first-order primary biodegradation rate constant k [3] | first-order primary biodegradation rate constant k [4] | first-order primary biodegradation rate constant k [5] | first-order primary biodegradation rate constant k [6] | first-order primary biodegradation rate constant k [7] | first-order primary biodegradation rate constant k [8] | first-order primary biodegradation rate constant k [9] | first-order primary biodegradation rate constant k [10] | first-order primary biodegradation rate constant k [11] | first-order primary biodegradation rate constant k [12] | first-order primary biodegradation rate constant k [13] | first-order primary biodegradation rate constant k [14] | first-order primary biodegradation rate constant k [15]
NCC1(CC(=O)O)CCCCC1 [Gabapentin] | 0.0147 | 0.183 | 0.0518 | 0.0145 | 0.811 | 0.119 | 0.119 | 0.235 | 0.109 | 0.0703 | 0.15 |  |  |  | 
Cc1ccc(C)c(OCCCC(C)(C)C(=O)O)c1 [Gemfibrozil] | 0.143 | 0.278 | 0.37 | 0.227 | 0.371 | 0.26 |  | 0.327 |  |  | 1.01 | 0.133 | 0.152 | 0.237 | 
O=[N+]([O-])/N=C1\NCCN1Cc1ccc(Cl)nc1 [Imidacloprid] | 0.029 | 0.0495 |  |  |  | 0.0128 |  |  |  |  | 0.00932 |  |  |  | 
Cc1ccc(C(C)NC(=O)[C@@H](NC(=O)OC(C)C)C(C)C)cc1 (stereo partly drawn) [Iprovalicarb] | 0.251 | 0.275 | 0.258 | 0.138 | 0.211 | 0.115 |  | 0.203 | 0.123 | 0.167 | 0.146 | 0.0361 | 0.096 | 0.0585 | 0.16
CCCCC1=NC2(CCCC2)C(=O)N1Cc1ccc(-c2ccccc2-c2nnn[nH]2)cc1 [Irbesartan] | 0.161 |  |  | 0.0725 |  |  |  | 0.426 |  | 0.0556 |  |  |  |  | 
CC(C)c1ccc(NC(=O)N(C)C)cc1 [Isoproturon] | 0.0107 | 0.0814 | 0.072 | 0.111 |  | 0.0102 |  | 0.0402 |  | 0.0187 | 0.0209 |  | 0.0309 |  | 
CC(C(=O)O)c1cccc(C(=O)c2ccccc2)c1 (stereo not drawn) [Ketoprofen] | 0.108 | 0.441 | 0.537 | 0.36 | 0.235 | 0.269 | 0.0247 | 0.368 | 0.829 | 1.21 | 2.62 | 0.226 | 0.285 | 1.07 | 0.0301
Nc1nnc(-c2cccc(Cl)c2Cl)c(N)n1 [Lamotrigine] |  | 0.0823 |  | 0.0465 |  |  |  |  |  |  |  |  | 0.0519 |  | 0.337
c1ccc([C@H]2CN3CCSC3=N2)cc1 [Levamisole] |  | 0.512 | 0.193 | 0.133 | 0.0276 | 0.0263 |  | 0.0585 | 0.0447 | 0.0845 | 0.0682 | 0.0857 | 0.21 | 0.0196 | 
CC[C@@H](C(N)=O)N1CCCC1=O [Levetiracetam] | 0.229 | 0.49 | 0.382 | 0.188 | 0.958 | 0.236 |  | 0.262 | 0.35 |  |  | 0.0839 |  |  | 
CCN(CC)CC(=O)Nc1c(C)cccc1C [Lidocaine] | 0.0105 | 0.00344 | 0.0177 | 0.00116 | 0.0307 | 0.287 |  | 0.118 | 0.00379 | 0.0121 | 0.0138 |  | 0.0298 | 0.00975 | 
CC(=O)NC[C@H]1CN(c2ccc(N3CCOCC3)c(F)c2)C(=O)O1 [Linezolid] | 0.0119 | 0.0934 | 0.285 | 0.308 | 0.0257 | 0.0212 |  | 0.0693 | 0.0142 | 0.0268 | 0.103 | 0.0124 | 0.262 | 0.0127 | 0.00542
CCCCc1nc(Cl)c(CO)n1Cc1ccc(-c2ccccc2-c2nnn[nH]2)cc1 [Losartan] | 0.417 | 0.319 | 0.323 | 0.781 | 0.157 | 0.105 | 0.0258 | 0.299 | 0.149 | 0.294 | 0.358 | 0.123 | 0.343 | 0.06 | 
